Assay results published in patent US10550166B2, “Immunogenic peptides of the cyclin B1 tumor antigen” (Commissariat a l'Energie Atomique et aux Energies …, priority 2013, dated 2020).

Key:
class II HLA molecules = test: number of class II HLA molecules bound out of the 12 tested; assay type: binding, human
CD4+ T lymphocytes = test: induction of peptide-specific CD4+ T lymphocyte lines with peptide-loaded dendritic cells, Elispot; assay type: cell-based, human; conditions: for Average strength (%): CD4+ T response, 13 healthy donors; for frequency: frequency of responders among 13 donors; for Number of specific responses, total: total over 13 healthy donors; for responders: number of responding donors out of 13
Description: The blood samples (buffy coat) come from the Etablissement Francais du Sang [French blood bank] (Rungis center). The peripheral blood mononuclear cells (PBMCs) were isolated by means of a ficoll gradient. The immature dendritic cells (DCs) were obtained from the PBMCs by differentiation of the adherent cells after 5 days of culture in AIM-V medium (Life Technologies) containing 1000 U/ml of IL-4 and 1000 U/ml of GM-CSF (R&D Systems). The mature DCs were obtained from the immature DCs after having been cultured for two days in the presence of lipopolysaccharide (LPS). The CD4^+ T lymphocytes were purified from the PBMCs using magnetic microbeads coupled to anti-CD4 antibodies (Miltenyi Biotec). The HLA-DRB1 genotyping of the donors was carried out by sequence-specific PCR using the All Set^+™ Gold SSP HLA-DRB1 kit (Invitrogen).
The CD4^+ T lymphocytes (1 to 3×10^5) were cultured in round-bottomed 96-well plates with autologous immature DCs preloaded with 1.2 μM of CCNB1 and matured in the presence of LPS, or with autologous mature DCs preloaded with pools of peptides (10 μg/ml). The culturing is carried out in IMDM medium (Life Technologies) supplemented with human serum of group AB (complete IMDM medium) containing 1000 U/ml of IL-6 (R&D Systems) and 10 ng/ml of IL-12 (R&D Systems). The culture is stimulated at the end of one week by adding 10 000 to 30 000 DCs loaded with the CCNB1 protein or the pools of peptides, 20 U/ml of IL-2 (R&D Systems) and 10 ng/ml of IL-7 (R&D Systems). Another stimulation is carried out after 14 and optionally 21 days of culture. Between 5 and 7 days after the final stimulation, a specificity test is carried out by EliSpot. Each culture well constitutes a CD4^+ T lymphocyte line.
The anti-human IFN-γ antibody 1-D1K (Mabtech) is adsorbed at 2.5 μg/ml in 1×PBS onto 96-well Multiscreen®-HA plates (Millipore) by overnight incubation at 4° C. The plates are then saturated by incubation for 2 hours at 37° C. with complete IMDM medium. The CD4^+ T lymphocytes are incubated for 16 hours at 37° C. in these plates after having been washed in AIM-V/IL-7 medium (0.5 ng/ml of IL-7). The autologous immature DCs (5000 cells/well) preloaded for 4 hours with the CCNB1 protein or KLH (0.5 to 3 μM) or PBMCs (50 000 cells/well) incubated in the presence of 10 μg/ml of peptides are used as presenting cells. After incubation, the plates are washed with distilled water, PBS/0.05% Tween and PBS. 100 μl/well of biotinylated anti-human IFN-γ Ab 7-B6-1 (Mabtech) at 0.25 μg/ml in 1×PBS/1% BSA is added to the plates, which are incubated for 1 h 30 min at 37° C. […] After 5 to 10 minutes of incubation, the reaction is stopped by washing with running water. After drying, the spots are counted on an Elispot reader (AID). A CD4^+ T lymphocyte line is considered to be antigen-specific if the number of spots in the wells containing the antigen is at least two times higher than the well not containing the antigen, the difference between the 2 types of well being at least greater than 25. The frequency of the CD4^+ T lymphocytes present in the donor blood is estimated using the Poisson's law distribution according to the formula: frequency=−Ln ((number of nonspecific lines/total number of lines tested))/(number of CD4^+ lymphocytes incubated in each well).
13 healthy donors comprising HLA molecules which are varied and most of which are very frequent in the Caucasian population were selected (Table IX).
CD4^+ T lymphocyte lines were obtained by coculture of the CD4^+ T lymphocytes with autologous dendritic cells preloaded with pools of peptides. After amplification of the T lymphocytes, each line was tested by Elispot (Table IX). The results are reported in the form of the number of times when a response to a peptide is observed. All the peptides induce a T lymphocyte response, but the strength of the response and the number of responders are very variable. 9 peptides activate T lymphocytes in more than half the donors.

[1] = Donor 14, HLA-DRB1 typing 07:01/13:01
[2] = Donor 22, HLA-DRB1 typing 01:01/09:01
[3] = Donor 31, HLA-DRB1 typing 13:01/16:01
[4] = Donor 32, HLA-DRB1 typing 03:01
[5] = Donor 56, HLA-DRB1 typing 07:01/11:01
[6] = Donor 876, HLA-DRB1 typing 11:01/11:04
[7] = Donor 30, HLA-DRB1 typing 07:01/11:01

Sequence	Number HLA II (class II HLA molecules)	Average strength (%) (CD4+ T lymphocytes)	frequency (CD4+ T lymphocytes)	Number of specific responses, total (CD4+ T lymphocytes)	responders (CD4+ T lymphocytes)	also measured
REVTGNMRAILIDWL [Peptide 195-209]	5					
ETMYMTVSIIDRFMQ (H-ETMYMTVSIIDRFMQ-NH2) [Peptide 221-235]	12	1.5%	54%	10		Number of specific responses (CD4+ T lymphocytes; [1]): 2; Number of specific responses (CD4+ T lymphocytes; [2]): 3
KPLEKVPMLVPVPVS [Peptide 81-95]	0					
HTLAKYLMELTMLDY (H-HTLAKYLMELTMLDY-NH2) [Peptide 320-334]	12					
HQIRQMEMKILRALNFGLGR (H-HQIRQMEMKILRALNFGLGR-NH2) [Peptide 280-299]		3.5%	85%	23	11	Number of specific responses (CD4+ T lymphocytes; [2]): 3; Number of specific responses (CD4+ T lymphocytes; Donor 26, HLA-DRB1 typing 11:04/15:01): 3; Number of specific responses (CD4+ T lymphocytes; [3]): 3
RPLPLHFLRRASKIG [Peptide 299-313]	6					
EQLQAKMPMKKEAKP [Peptide 54-68]	1					
MELTMLDYDMVHFPP [Peptide 327-341]	5					
VQMKFRLLQETMYMT (H-VQMKFRLLQETMYMT-NH2) [Peptide 212-226]	10	0.8%	23%		3	Number of specific responses (CD4+ T lymphocytes; Donor 62, HLA-DRB1 typing 01:01/04:05): 3
HTLAKYLMELTMLDYDMV (H-HTLAKYLMELTMLDYDMV-NH2) [Peptide 320-337]			38%		5	
KKMLQLVGVTAMFIASKY (H-KKMLQLVGVTAMFIASKY-NH2) [Peptide 241-258]		2.3%	54%		7	Number of specific responses (CD4+ T lymphocytes; Donor 877, HLA-DRB1 typing 01:01/13:01): 4
RPLPLHFLRRASKIGEVDV (H-RPLPLHFLRRASKIGEVDV-NH2) [Peptide 299-317]		5.0%	77%	33	10	Number of specific responses (CD4+ T lymphocytes; [2]): 8; Number of specific responses (CD4+ T lymphocytes; [3]): 6; Number of specific responses (CD4+ T lymphocytes; [4]): 2; Number of specific responses (CD4+ T lymphocytes; [5]): 6; Number of specific responses (CD4+ T lymphocytes; [6]): 4
PTLQHYLSYTEESLLPVM (H-PTLQHYLSYTEESLLPVM-NH2) [Peptide 363-380]		1.1%	38%	7		Number of specific responses (CD4+ T lymphocytes; [1]): 2; Number of specific responses (CD4+ T lymphocytes; [6]): 2
SQIAAGAFCLALKIL (synthetic peptide CCNB1 342-356) [Peptide 342-356]	7	0.8%	31%	5	4	Number of specific responses (CD4+ T lymphocytes; [1]): 1; Number of specific responses (CD4+ T lymphocytes; [7]): 1; Number of specific responses (CD4+ T lymphocytes; [4]): 1; Number of specific responses (CD4+ T lymphocytes; [5]): 2
PQLNSALVQDLAKAVAKV (H-PQLNSALVQDLAKAVAKV-NH2) [Peptide 416-433]		6.1%	77%	39	10	Number of specific responses (CD4+ T lymphocytes; [1]): 13; Number of specific responses (CD4+ T lymphocytes; [2]): 2; Number of specific responses (CD4+ T lymphocytes; Donor 23, HLA-DRB1 typing 04:01/13:01): 5; Number of specific responses (CD4+ T lymphocytes; [7]): 2; Number of specific responses (CD4+ T lymphocytes; [3]): 5; Number of specific responses (CD4+ T lymphocytes; [5]): 5; Number of specific responses (CD4+ T lymphocytes; Donor 996, HLA-DRB1 typing 08:04/14:08): 2
GNMRAILIDWLVQVQMKF (H-GNMRAILIDWLVQVQMKF-NH2) [Peptide 199-216]		1.2%	38%	8	5	Number of specific responses (CD4+ T lymphocytes; [5]): 3
NCVPKKMLQLVGVTA [Peptide 237-251]	3					
NTYTKHQIRQMEMKI [Peptide 275-289]	5					
KHMTVKNKYATSKHA [Peptide 396-410]	2					
QHYLSYTEESLLPVM [Peptide 366-380]	8					
QAFSDVILAVNDVDA [Peptide 144-158]	5					
KKMLQLVGVTAMFIA [Peptide 241-255]	8					
QGLTKHMTVKNKYAT [Peptide 392-406]	2					
